How the values were obtained:
[1] = molecular target: T1, Alpha-2C adrenergic receptor (Homo sapiens, UniProt P18825); type: functional
T1 sequence (P18825 whole entry): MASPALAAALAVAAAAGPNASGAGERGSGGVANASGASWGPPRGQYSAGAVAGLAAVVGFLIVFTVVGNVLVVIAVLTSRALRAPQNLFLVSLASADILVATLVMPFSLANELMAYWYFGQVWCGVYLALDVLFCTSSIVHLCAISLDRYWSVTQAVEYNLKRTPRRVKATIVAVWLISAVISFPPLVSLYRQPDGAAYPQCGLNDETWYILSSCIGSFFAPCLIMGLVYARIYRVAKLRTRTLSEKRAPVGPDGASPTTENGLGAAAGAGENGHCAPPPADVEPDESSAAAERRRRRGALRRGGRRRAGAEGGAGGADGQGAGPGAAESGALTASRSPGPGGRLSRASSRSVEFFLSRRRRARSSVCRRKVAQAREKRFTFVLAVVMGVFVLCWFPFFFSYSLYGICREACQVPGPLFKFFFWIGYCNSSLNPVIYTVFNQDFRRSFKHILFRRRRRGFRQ

[2] = molecular target: T2, Type-1 angiotensin II receptor (Homo sapiens, UniProt P30556)
T2 sequence (P30556 whole entry): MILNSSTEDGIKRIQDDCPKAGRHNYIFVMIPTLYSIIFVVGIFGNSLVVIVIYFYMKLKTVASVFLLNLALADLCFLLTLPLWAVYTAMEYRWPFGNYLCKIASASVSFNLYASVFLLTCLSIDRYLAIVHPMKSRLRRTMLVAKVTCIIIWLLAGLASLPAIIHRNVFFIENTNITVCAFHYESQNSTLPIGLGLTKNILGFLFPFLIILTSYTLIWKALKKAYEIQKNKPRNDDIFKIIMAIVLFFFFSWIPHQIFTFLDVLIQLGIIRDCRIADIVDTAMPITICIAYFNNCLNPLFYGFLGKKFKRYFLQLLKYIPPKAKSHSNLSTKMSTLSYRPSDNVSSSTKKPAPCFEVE

[3] = molecular target: Vasopressin V2 receptor (Homo sapiens, UniProt P30518)
[4] = molecular target: Muscarinic acetylcholine receptor M3 (Homo sapiens, UniProt P20309)
[5] = molecular target: 5-hydroxytryptamine receptor 2A (Homo sapiens, UniProt P28223); type: functional, cell-based
[6] = molecular target: 5-hydroxytryptamine receptor 2B (Homo sapiens, UniProt P41595); type: functional, cell-based
[7] = molecular target: Melanocortin receptor 3 (Homo sapiens, UniProt P41968)
[8] = molecular target: T3, Neuropeptide Y receptor type 1 (Homo sapiens, UniProt P25929)
T3 sequence (P25929 whole entry): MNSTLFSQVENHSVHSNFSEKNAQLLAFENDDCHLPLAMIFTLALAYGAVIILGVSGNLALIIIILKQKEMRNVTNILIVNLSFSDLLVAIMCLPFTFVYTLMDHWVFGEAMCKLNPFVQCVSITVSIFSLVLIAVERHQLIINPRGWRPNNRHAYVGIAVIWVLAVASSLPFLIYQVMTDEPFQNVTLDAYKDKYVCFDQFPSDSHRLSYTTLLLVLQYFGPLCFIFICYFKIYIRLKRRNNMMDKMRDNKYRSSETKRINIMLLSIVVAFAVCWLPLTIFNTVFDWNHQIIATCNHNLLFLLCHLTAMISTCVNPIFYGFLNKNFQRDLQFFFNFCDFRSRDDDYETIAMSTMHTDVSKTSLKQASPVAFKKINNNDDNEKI

[9] = molecular target: T4, Glucocorticoid receptor (Homo sapiens, UniProt P04150)
T4 sequence (P04150 whole entry): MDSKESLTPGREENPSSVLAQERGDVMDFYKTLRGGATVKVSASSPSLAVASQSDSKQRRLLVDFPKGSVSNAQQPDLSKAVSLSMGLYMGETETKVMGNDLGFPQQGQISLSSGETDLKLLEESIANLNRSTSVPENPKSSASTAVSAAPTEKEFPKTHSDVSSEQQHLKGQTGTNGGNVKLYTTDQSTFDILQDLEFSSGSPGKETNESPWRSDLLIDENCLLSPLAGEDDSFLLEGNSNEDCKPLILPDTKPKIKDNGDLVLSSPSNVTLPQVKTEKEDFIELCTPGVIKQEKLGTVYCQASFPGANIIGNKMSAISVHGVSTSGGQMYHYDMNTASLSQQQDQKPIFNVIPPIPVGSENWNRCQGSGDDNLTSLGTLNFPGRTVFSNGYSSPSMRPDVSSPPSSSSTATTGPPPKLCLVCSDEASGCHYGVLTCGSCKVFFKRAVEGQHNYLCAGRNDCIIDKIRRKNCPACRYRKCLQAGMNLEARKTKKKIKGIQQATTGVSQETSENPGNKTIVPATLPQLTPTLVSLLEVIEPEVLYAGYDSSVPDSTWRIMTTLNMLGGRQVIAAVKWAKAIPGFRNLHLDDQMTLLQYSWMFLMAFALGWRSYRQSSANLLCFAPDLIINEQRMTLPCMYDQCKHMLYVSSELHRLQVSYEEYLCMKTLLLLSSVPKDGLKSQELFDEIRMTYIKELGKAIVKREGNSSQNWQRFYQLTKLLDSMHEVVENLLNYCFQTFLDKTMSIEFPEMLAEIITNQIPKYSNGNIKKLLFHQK

[10] = molecular target: Sodium-dependent dopamine transporter (Homo sapiens, UniProt Q01959)
[11] = molecular target: cGMP-inhibited 3',5'-cyclic phosphodiesterase 3A (Homo sapiens, UniProt Q14432); type: functional
[12] = molecular target: Histamine H2 receptor (Homo sapiens, UniProt P25021); type: functional, cell-based
[13] = molecular target: T5, Alpha-1A adrenergic receptor (Homo sapiens, UniProt P35348); type: functional, cell-based
T5 sequence (P35348 whole entry): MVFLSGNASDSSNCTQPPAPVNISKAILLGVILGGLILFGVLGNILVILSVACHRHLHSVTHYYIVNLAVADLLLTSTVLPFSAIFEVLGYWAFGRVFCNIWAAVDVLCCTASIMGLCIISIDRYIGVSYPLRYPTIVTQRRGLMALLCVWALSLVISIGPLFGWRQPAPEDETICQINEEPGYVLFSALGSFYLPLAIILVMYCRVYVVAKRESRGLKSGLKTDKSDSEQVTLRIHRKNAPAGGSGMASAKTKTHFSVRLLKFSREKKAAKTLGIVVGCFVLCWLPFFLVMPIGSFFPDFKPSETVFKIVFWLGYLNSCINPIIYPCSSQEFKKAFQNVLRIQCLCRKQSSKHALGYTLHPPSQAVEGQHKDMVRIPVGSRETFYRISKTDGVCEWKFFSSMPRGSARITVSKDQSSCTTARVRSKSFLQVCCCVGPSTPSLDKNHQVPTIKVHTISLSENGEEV
Further: assay procedure not described here.

Sodium-dependent dopamine transporter, sequence (Q01959 whole entry): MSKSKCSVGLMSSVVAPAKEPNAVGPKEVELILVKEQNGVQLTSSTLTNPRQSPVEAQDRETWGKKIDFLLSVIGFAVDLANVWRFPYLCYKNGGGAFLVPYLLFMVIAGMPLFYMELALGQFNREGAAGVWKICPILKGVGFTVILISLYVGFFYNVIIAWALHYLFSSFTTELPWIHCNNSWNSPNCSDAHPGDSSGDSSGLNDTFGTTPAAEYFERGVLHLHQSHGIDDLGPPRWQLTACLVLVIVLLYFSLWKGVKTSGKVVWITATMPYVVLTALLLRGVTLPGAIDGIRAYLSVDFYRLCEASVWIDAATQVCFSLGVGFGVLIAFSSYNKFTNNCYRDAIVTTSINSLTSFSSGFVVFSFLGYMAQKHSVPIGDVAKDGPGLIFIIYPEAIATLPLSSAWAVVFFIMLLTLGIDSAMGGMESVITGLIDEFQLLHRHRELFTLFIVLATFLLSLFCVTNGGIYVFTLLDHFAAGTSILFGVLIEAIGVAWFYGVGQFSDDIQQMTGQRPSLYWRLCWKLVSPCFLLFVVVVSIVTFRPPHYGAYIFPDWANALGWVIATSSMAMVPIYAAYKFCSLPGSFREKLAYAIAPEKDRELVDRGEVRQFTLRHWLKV
Vasopressin V2 receptor, sequence (P30518 whole entry): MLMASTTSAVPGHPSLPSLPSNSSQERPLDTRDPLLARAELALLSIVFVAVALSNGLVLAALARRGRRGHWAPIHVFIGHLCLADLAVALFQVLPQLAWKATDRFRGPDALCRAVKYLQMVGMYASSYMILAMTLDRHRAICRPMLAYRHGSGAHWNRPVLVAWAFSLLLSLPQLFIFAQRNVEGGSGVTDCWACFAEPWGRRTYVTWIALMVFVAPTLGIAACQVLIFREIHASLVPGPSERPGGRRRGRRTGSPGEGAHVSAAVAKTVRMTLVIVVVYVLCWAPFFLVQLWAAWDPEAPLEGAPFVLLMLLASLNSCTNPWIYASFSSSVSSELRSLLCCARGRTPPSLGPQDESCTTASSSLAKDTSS
Histamine H2 receptor, sequence (P25021 whole entry): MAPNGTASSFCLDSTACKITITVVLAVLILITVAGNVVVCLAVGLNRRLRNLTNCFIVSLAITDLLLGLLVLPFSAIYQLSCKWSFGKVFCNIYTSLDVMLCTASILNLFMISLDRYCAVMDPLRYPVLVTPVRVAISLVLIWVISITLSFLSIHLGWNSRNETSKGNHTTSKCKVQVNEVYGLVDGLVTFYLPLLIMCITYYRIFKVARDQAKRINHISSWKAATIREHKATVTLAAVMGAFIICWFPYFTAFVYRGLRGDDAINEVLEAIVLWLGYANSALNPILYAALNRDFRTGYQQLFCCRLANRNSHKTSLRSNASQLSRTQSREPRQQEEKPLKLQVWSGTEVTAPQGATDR
cGMP-inhibited 3',5'-cyclic phosphodiesterase 3A, sequence (Q14432 whole entry): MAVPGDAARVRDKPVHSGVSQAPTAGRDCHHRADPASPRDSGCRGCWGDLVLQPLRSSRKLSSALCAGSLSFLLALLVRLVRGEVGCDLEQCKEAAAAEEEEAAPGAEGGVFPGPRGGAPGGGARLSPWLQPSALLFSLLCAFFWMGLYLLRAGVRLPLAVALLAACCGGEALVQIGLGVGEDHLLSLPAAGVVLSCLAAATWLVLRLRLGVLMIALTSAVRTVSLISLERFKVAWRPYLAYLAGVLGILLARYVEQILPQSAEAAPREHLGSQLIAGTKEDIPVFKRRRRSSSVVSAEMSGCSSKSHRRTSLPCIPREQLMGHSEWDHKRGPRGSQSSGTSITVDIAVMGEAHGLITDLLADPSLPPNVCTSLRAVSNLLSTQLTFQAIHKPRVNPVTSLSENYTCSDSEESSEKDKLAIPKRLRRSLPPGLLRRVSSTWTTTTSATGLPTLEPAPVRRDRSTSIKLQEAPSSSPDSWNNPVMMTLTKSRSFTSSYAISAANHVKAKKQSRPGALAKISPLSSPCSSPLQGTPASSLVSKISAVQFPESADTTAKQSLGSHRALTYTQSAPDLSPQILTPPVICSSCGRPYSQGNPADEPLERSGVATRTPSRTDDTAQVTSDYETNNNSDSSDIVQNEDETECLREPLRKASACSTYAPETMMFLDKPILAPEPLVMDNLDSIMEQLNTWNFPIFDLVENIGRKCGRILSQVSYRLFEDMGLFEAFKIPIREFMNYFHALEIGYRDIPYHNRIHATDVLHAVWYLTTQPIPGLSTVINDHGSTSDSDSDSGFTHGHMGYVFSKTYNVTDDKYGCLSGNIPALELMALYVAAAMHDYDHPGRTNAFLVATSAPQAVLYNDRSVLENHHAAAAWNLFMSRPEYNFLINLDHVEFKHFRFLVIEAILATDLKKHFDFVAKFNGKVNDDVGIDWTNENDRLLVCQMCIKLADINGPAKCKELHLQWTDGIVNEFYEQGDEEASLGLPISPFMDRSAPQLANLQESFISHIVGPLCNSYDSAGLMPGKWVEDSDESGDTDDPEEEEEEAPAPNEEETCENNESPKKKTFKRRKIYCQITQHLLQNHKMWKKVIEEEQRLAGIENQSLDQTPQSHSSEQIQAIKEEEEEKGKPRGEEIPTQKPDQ
Melanocortin receptor 3, sequence (P41968 whole entry): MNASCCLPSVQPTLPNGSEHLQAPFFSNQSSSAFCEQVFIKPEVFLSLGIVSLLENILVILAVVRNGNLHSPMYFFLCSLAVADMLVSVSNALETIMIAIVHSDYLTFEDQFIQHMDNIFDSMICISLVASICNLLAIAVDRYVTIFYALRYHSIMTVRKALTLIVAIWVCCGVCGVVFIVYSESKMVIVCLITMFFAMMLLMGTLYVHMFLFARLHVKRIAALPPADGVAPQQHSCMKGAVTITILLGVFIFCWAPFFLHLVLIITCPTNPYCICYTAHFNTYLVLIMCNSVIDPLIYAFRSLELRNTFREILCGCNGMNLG
5-hydroxytryptamine receptor 2A, sequence (P28223 whole entry): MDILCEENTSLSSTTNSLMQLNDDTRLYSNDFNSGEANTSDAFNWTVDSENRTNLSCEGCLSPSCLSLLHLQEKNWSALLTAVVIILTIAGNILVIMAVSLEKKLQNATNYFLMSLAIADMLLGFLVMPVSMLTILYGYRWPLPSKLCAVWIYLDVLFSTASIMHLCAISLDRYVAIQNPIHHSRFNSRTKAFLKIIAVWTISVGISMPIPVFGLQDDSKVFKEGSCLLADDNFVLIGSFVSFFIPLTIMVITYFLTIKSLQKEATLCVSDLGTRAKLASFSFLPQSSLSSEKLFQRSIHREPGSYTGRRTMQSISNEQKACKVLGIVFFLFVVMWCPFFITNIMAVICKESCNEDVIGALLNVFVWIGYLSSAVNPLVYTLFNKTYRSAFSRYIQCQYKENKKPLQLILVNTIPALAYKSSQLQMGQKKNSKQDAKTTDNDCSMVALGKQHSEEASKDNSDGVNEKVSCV
5-hydroxytryptamine receptor 2B, sequence (P41595 whole entry): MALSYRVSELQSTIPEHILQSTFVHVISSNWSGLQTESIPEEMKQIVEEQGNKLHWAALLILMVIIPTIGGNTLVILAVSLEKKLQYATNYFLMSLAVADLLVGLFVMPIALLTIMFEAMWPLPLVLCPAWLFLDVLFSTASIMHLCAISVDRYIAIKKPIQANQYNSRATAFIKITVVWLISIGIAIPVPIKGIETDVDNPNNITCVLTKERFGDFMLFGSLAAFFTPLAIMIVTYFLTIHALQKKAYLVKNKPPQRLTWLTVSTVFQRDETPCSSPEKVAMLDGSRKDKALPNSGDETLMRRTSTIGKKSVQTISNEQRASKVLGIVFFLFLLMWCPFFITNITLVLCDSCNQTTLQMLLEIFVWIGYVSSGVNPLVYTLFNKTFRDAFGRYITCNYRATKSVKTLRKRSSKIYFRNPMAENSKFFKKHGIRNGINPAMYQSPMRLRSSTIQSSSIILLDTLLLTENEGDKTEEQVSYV
Muscarinic acetylcholine receptor M3, sequence (P20309 whole entry): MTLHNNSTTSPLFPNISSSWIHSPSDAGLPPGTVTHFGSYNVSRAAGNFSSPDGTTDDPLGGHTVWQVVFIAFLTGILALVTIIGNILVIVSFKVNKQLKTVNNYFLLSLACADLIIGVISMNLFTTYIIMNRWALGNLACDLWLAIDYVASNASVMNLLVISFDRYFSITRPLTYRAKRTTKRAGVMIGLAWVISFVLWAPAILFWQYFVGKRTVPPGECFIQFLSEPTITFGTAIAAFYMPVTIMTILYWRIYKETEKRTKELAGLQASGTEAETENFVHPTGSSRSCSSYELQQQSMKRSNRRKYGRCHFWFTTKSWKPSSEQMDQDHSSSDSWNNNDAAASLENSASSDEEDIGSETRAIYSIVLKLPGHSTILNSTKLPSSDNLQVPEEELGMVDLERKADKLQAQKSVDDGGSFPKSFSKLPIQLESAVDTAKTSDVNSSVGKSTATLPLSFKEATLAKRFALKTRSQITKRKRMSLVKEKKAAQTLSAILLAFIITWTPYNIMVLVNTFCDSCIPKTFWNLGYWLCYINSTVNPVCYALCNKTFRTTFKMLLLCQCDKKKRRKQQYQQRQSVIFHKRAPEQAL

Molecule | AC50 [1] [µM] | AC50 [2] [µM] | AC50 [3] [µM] | AC50 [4] [µM] | AC50 [5] [µM] | AC50 [6] [µM] | AC50 [7] [µM] | AC50 [8] [µM] | AC50 [9] [µM] | AC50 [10] [µM] | AC50 [11] [µM] | AC50 [12] [µM] | AC50 [13] [µM]
C=C[C@@]1(C)CC(=O)[C@]2(O)[C@@]3(C)[C@@H](O)CCC(C)(C)[C@@H]3[C@H](OC(=O)CCN(C)C)[C@H](OC(C)=O)[C@@]2(C)O1 | > 30 | > 30 | > 30 | > 30 | > 30 | > 30 | > 30 | > 30 | > 30 | > 30 | > 30 | – | –
CCC(=O)OCC(=O)[C@@]1(OC(=O)CC)[C@@H](C)C[C@H]2[C@@H]3CCC4=CC(=O)C=C[C@]4(C)[C@@]3(F)[C@@H](O)C[C@@]21C [BETAMETHASONE DIPROPIONATE] | > 30 | > 30 | > 30 | > 30 | > 30 | > 30 | > 30 | > 30 | – | > 30 | > 30 | > 30 | > 30
CCOC(=O)NNc1ccc(N(CC)CC(C)O)nn1 (configuration not stated) [CADRALAZINE] | > 30 | > 30 | > 30 | > 30 | > 30 | > 30 | > 30 | > 30 | – | > 30 | > 30 | > 30 | > 30
CCCC(C)(COC(N)=O)COC(=O)NC(C)C (configuration not stated) [CARISOPRODOL] | > 10 | > 30 | > 30 | > 10 | > 30 | > 10 | > 30 | > 30 | – | > 10 | > 30 | > 10 | > 30
COCCOC(=O)C1=C(C)NC(C)=C(C(=O)OC/C=C/c2ccccc2)C1c1cccc([N+](=O)[O-])c1 (configuration not stated) [CILNIDIPINE] | > 30 | > 30 | > 30 | > 30 | > 30 | > 30 | > 30 | > 30 | 6.5 | > 30 | > 30 | > 30 | –
CC(C)c1cc2c(cc1S(=O)(=O)O)[C@@]1(C)CCC[C@@](C)(C(=O)O)[C@@H]1CC2 [ECABET] | > 30 | > 30 | > 30 | > 30 | > 30 | > 30 | > 30 | > 30 | – | > 30 | > 30 | > 30 | > 30
COC(=O)N[C@@H](C)CNc1nccc(-c2cn(C(C)C)nc2-c2cc(Cl)cc(NS(C)(=O)=O)c2F)n1 [ENCORAFENIB] | > 30 | > 30 | > 30 | 8.7 | > 30 | > 30 | > 30 | > 30 | > 30 | > 30 | 25 | > 30 | –
CN(c1nccc(=O)[nH]1)C1CCN(c2nc3ccccc3n2Cc2ccc(F)cc2)CC1 [MIZOLASTINE] | > 30 | > 30 | > 30 | > 30 | > 30 | > 30 | > 30 | > 30 | – | > 30 | 6.1 | > 30 | > 30
CCOC(=O)Nc1ccc2c(c1)N(C(=O)CCN1CCOCC1)c1ccccc1S2 [MORICIZINE] | > 30 | > 30 | > 30 | > 30 | > 30 | > 30 | > 30 | > 30 | > 30 | > 30 | > 30 | > 30 | –
CC(CCc1ccccc1)NC(C)C(O)c1ccc(O)cc1 (configuration not stated) [NYLIDRIN] | 0.64 | > 30 | > 30 | > 10 | > 30 | > 10 | > 30 | > 30 | > 30 | 1.44 | > 30 | > 10 | –
O=C1Nc2ccc(Cl)cc2C(c2ccccc2)=NC1O (configuration not stated) [OXAZEPAM] | > 10 | > 30 | > 30 | > 10 | > 30 | > 10 | > 30 | > 30 | – | > 10 | > 30 | > 10 | > 30
Cc1ccc(=O)n(-c2ccccc2)c1 [PIRFENIDONE] | > 30 | > 30 | > 30 | > 30 | > 30 | > 30 | > 30 | > 30 | – | > 30 | > 30 | > 30 | > 30
COc1c(O[C@@H]2O[C@H](CO)[C@@H](O)[C@H](O)[C@H]2O)cc2c(c1OC)-c1ccc(SC)c(=O)cc1[C@@H](NC(C)=O)CC2 [THIOCOLCHICOSIDE] | > 30 | > 30 | > 30 | > 30 | > 30 | > 30 | > 30 | > 30 | – | > 30 | > 30 | > 30 | > 30
COLISTIN | > 30 | – | – | > 30 | > 30 | > 30 | – | – | – | – | > 30 | > 30 | > 30

— ChEMBL document CHEMBL5291721, “A preclinical secondary pharmacology resource illuminates target-adverse drug reaction associations of marketed drugs” (Nat Commun, 2023)
